Experimental findings from patent US4748155A, “Pharmacologically active tripeptides and process for their synthesis” (Eniricerche S.p.A., priority 1985, dated 1988) are described below.

Each structure is given as a SMILES string.

The test concerns acetic acid-induced writhings in mice. The settings on record: mouse, in vivo, ip.

Method: The analgesic activity has been tested by means of the writhing test. As the painful agent, an aqueous solution of acetic acid at 3% was used, injected by intraperitoneal way (0.1 ml/10 g), and the number was recorded of animal' writhings during the observation time of 20 minutes.
Twenty female mice of Albino Swiss strain, weighing 25-28 g, were treated with the compound under test, dissolved in physiologic solution:dimethylsulphoxide (1:1), at the dosage of 0.1 ml/kg/i.p. Other 20 mice, of same strain, sex and weight, were treated with the solvent only. After 40 minutes, the acetic acid was administered to both groups, and the increase of writhings was recorded.

On to `CC(C)C[C@@H](NC(=O)C(Cc1c[nH]c2ccccc12)C(=O)O)NC(=O)[C@@H]1CCC(=O)N1` (stereo partly drawn) [GLP-g-Leu-m-TRP-OH, N-(pyroglutamyl)-N'-[(R,S)-alpha-carboxy-beta-3-indolyl-propanoyl]-(S)-1,1-diamino-isopentane], for which the “inhibition of the number of contorsions (writhings)” value amounted to 25%.
